Measured values taken from patent publication US20180042765A1, “METHODS AND DEVICES FOR TREATING POSTERIOR OCULAR DISORDERS” (CLEARSIDE BIOMEDICAL, INC., priority 2014, published 2018).
“Also recorded” adds a separate entry of the source.

Tests used:
[1] = system: patients with non-infectious uveitis; test: Phase 1/2 open-label safety and tolerability study of TA administered to the suprachoroidal space; format: in vivo, human
Protocol: A clinical trial was designed to evaluate the safety and tolerability of a single injection of TA (triamcinolone acetonide administered as TRIESCENCE™) into the SCS in patients diagnosed with non-infectious uveitis.
Each mL of the sterile, aqueous suspension of TRIESENCE™ provides […] of triamcinolone acetonide, with sodium chloride for isotonicity, 0.5% (w/v) carboxymethylcellulose sodium and 0.015% polysorbate 80. It also contains potassium chloride, calcium chloride (dihydrate), magnesium chloride (hexahydrate), sodium acetate (trihydrate), sodium citrate (dihydrate) and water for injection. Sodium hydroxide and hydrochloric acid may be present to adjust pH to a target value 6-7.5.
The primary purpose of this trial was to evaluate the overall safety and tolerability of treating uveitis patients (non-infectious uveitis—intermediate, posterior or pan-uveitis) by administering a triamcinolone into the SCS via a single suprachoroidal injection. Eligibility criteria include adult patients with non-infectious uveitis experiencing either macular edema or vitreous haze, a common complication of uveitis. This was in order to determine whether SCS administration of TA could improve patient vision through reducing the effects of either condition. For inclusion in the trial, patients must have IOP (intra-ocular pressure) of no greater than 22 mmHg
Each patient enrolled received a single SCS microinjection of 4.0 mg (100 μL) of triamcinolone acetonide of day 1. Patients returned for a follow-up examination on the day after the injection and then for eight additional evaluations at weeks 1, 2, 4, 8, 12, 16, 20 and 26 following the treatment. Patients may receive other treatment at any time during the trial with any accepted therapy based on their physician's best medical judgment, if their condition deteriorates or if the physician otherwise determines it to be advisable. In the event a patient received other treatment, the patient was followed for the duration of the trial for safety purposes, but efficacy measures were no longer considered thereafter.
Patients received the single SCS injection 4 mm posterior to limbus and received an ultrasound assessment of scleral thickness immediately after injection.
Endpoints. The main safety endpoint was changes from baseline in intraocular pressure (TOP). Also assessed was an efficacy endpoint relating to changes in best-corrected visual acuity, or BCVA, as well as changes in excess retinal thickness.

[2] = system: patients; conditions: in vivo; cited from earlier work
[3] = system: porcine model of acute posterior uveitis (intravitreal LPS); test: Porcine model of acute uveitis: modified Hackett-McDonald ocular inflammation score; format: in vivo, pigs
[4] = system: porcine model of acute posterior uveitis (intravitreal LPS); test: Porcine model of acute uveitis: intraocular pressure (TonoVet); format: in vivo, pigs; conditions: Day 3, low dose 0.1 mg/kg/day PO, P<0.0065
Protocol: (§1) Twenty four hours after the induction of acute uveitis by intraocular lipopolysaccharide (LPS) injection (Day 0) into the vitreous, 50 μL of balanced salt solution (BSS, Group 1) or triamcinolone (CLS-TA) (2 mg, Group 3) was injected into the suprachoroidal space (SCS). In Groups 2 and 4, oral prednisone (1 mg/kg/day, Group 2 or 0.1 mg/kg/day, Group 4) was dosed on Day 0, and repeated every 24 hours until euthanasia on day 3. Eyes were examined every 24 hours, which included measuring inflammation scores (Modified Hackett-McDonald) and intraocular pressure (TOP) until euthanasia 3 days after initiation of treatment. Safety assessments and histopathology were performed on all eyes. Electroretinography and wide-field fundus photography was performed at −24 hours, time 0 (before treatment) and on Day 3. Histopathology was performed on eyes after euthanasia.
Treatment. […]
Intraocular Pressure. Intraocular pressure (TOP) was measured with the pigs awake and hand restrained at −144, −96, −24, 0, 24, 48, and 72 hours (see FIG. 1) using a TonoVet Tonometer (iCare, Finland). […] After the six measurements, the mean IOP was shown on the display providing the IOP that was recorded.
Data and Statistical Analysis. […] Results and probabilities were calculated using computerized statistical software (JMP 10, SAS Inc. Cary, N.C.).

[5] = system: porcine model of acute posterior uveitis (intravitreal LPS); test: Porcine model of acute uveitis: wide-field ocular fundus digital photography; format: in vivo, pigs; conditions: 72 hours
Protocol: as §1, with “-24” for “−24”, “euthanasia. Wide-field Ocular Fundus Digital Photography. With the pigs anesthetized at times -24, 0 and 72 hours, and pupils dilated with tropicamide 1%, the ocular fundus was photographed with standardized illumination and focus using a wide-field digital imaging system ([…], Clarity Medical Systems, Pleasanton, Calif.).” for “euthanasia.”

[6] = system: porcine model of acute posterior uveitis (intravitreal LPS); test: Porcine model of acute uveitis: ocular histopathology; format: in vivo, pigs

| Compound | patients with meaningful improvements in BCVA ([1]; 26 weeks after single SCS injection of TA on Day 1) | gain in BCVA ([1]; 26 weeks after single SCS injection, four of the eight patients) | decrease in retinal thickness (OCT), SCS injection compared to sub-tenon injection ([1]; one patient, bilateral uveitis, 4 mg TA SCS in one eye, 20 mg TA sub-tenon in the other eye) | OCT appearance of eye treated with TA via suprachoroidal injection vs Ozurdex treated eye ([1]; one patient, bilateral uveitis, four to six weeks after treatment) | average reduction in CME ([1]; seven patients, single TA injection into the SCS) | deaths ([1]; single SCS injection 4.0 mg (100 μL) TA, eight patients) | mean reduction in macular edema (retinal thickness) ([1]; week 26, single TA injection into the SCS, seven patients with macular edema) | patients with cataracts and increases in IOP levels [2] | mean cumulative inflammation score compared with Group 1 (BSS) ([3]; Day 3 (72 hours), high dose 1 mg/kg/day PO, P<0.034) | mean cumulative inflammation score compared with saline treated eyes ([3]; any treatment time, low dose 0.1 mg/kg/day PO) | reduction of ocular inflammation relative to low dose prednisone ([3]; high dose 1 mg/kg/day PO) | time to reduction of inflammation ([3]; high dose 1 mg/kg/day PO) | mean IOP compared with the other groups [4] | wide-field fundus images ([5]; high dose 1 mg/kg/day PO) | wide-field fundus images ([5]; low dose 0.1 mg/kg/day PO) | mean histologic score of the posterior segment compared with low dose oral prednisone (Group 4) ([6]; high dose 1 mg/kg/day PO, P<0.013) | mean histologic score of the anterior segment compared with saline (Group 1) ([6]; oral 0.1 mg/kg/day (Group 4)) | mean histologic score of the anterior segment compared with saline (Group 1) ([6]; oral 1 mg/kg/day (Group 2)) |
| --- | --- | --- | --- | --- | --- | --- | --- | --- | --- | --- | --- | --- | --- | --- | --- | --- | --- | --- |
| CC1(C)O[C@@H]2C[C@H]3[C@@H]4CCC5=CC(=O)C=C[C@]5(C)[C@@]4(F)[C@@H](O)C[C@]3(C)[C@]2(C(=O)CO)O1 [TA, triamcinolone acetonide] | Four of the eight patients | about 3 lines | greater decrease in retinal thickness | looks better than the intravitreally Ozurdex treated eye | about 20% | No deaths | over 100 microns | 20-60% |  |  |  |  |  |  |  |  |  |  |
| C[C@]12C=CC(=O)C=C1CC[C@@H]1[C@@H]2C(=O)C[C@@]2(C)[C@H]1CC[C@]2(O)C(=O)CO [prednisone] |  |  |  |  |  |  |  |  | significantly lower | not significantly different than saline treated eyes | more effective than low dose prednisone | three days | significantly lower than Groups 1, 2, and 3; also recorded: significantly lower IOP than all other groups | near pre-treatment appearance | only slightly improved over vehicle treated eyes | lower than the mean score of eyes treated with low dose oral prednisone | not significantly different than Group 1 | not significantly different than Group 1 |
